The source of these data is paper doi:10.1101/2020.07.08.194076v1 (biorxiv, 2020).

The subject of this assay is SlG3. The assay can be described thus: GGPPS enzyme assay. The format is biochemical, Solanum lycopersicum.

For `C=C(C)CCOP(=O)(O)OP(=O)(O)O` [IPP], the Km (co-substrate 100 µM DMAPP) worked out at 45.9 ± 4.86 µM. As to `CC(C)=CCOP(=O)(O)OP(=O)(O)O` [DMAPP], for the setting “co-substrate 100 µM IPP”, the Km worked out at 45.8 ± 6.81 µM.

In general, Km refers to the substrate concentration at which the rate is half of its maximum.
